Test results published in US10167517B2, “MIPOL1-ETV1 gene rearrangements” (THE REGENTS OF THE UNIVERSITY OF MICHIGAN, priority 2007, dated 2019).

System: LNCaP cells
Test: Androgen regulation of gene expression by qPCR in LNCaP cells stimulated with R1881
Format: cell-based
Details: target gene to GAPDH ratio
Text: FIG. 6, a illustrates the tissue specificity of the 4 contiguous genes in the 14q13.3-14q21.1 region which was interrogated in the expo dataset (using Oncomine) and expression (in normalized expression units) is shown for 28 distinct tumor types and prostate cancer. FIG. 6, b and -c illustrate androgen regulation of the contiguous 14q13.3-14q21.1 genes (FIG. 6, b) and ETV1 (FIG. 6, c), as determined by qPCR in LNCaP cells with (+) or without (−) stimulation by the synthetic androgen R1881. Ratios of target gene to GAPDH (mean (n=4)+S.E.) are shown. FIG. 6, d illustrates that LNCaP and its androgen insensitive derivative, C4-2B, were profiled using a microarray (Agilent Whole Genome Microarrays), in which the top ten most differentially expressed features (LNCaP/C4-2B) are shown. FIG. 6, e-g illustrate qPCR results that show decreased expression of androgen regulated genes in C4-2B compared to LNCaP, for markers ETV1 (FIG. 6, e) and PSA (FIG. 6, f), and the 4 contiguous transcripts at 14q13.3-14q21.1 (FIG. 6, g).
Additional prostate cancer cell lines were tested to screen for ERG and ETV1 expression by quantitative PCR (qPCR), to identify additional genetic rearrangements. The following cells were tested: an immortalized benign prostate epithelial cell line (RWPE) and 8 prostate cancer cell lines (MDA-PCa 2B, LNCaP, VCaP, LAPC4, 22Rv1, NCI-H660, PC3 and DU145). Quantitative PCR (QPCR) was performed by using the oligonucleotide primers shown in Table 1 (“Fusion QPCR” and “Androgen QPCR” sections) with standard laboratory procedures and reagents (Power SYBR Green Mastermix and 7300 Real Time PCR system, Applied Biosystems, Foster City, Calif.). All oligonucleotide primers were synthesized by standard methods (performed by Integrated DNA Technologies, Coralville, Iowa). HMBS and GAPDHS, and PSA6 primers were as described previously (Vandesompele et al., Genome Biol. 3:RESEARCH0034 (2002); Specht et al., Am J. Pathol. 158: 419 (2001)). Androgen stimulation reactions were performed in quadruplicate, and all other reactions were performed in duplicate.

In the case of `C[C@]1(O)CC[C@H]2[C@@H]3CCC4=CC(=O)CCC4=C3C=C[C@@]21C` [R1881], the “expression of ETV1 following R1881 stimulation” value (with vs without R1881, p=0.0004) is reported as 1.8 fold, the “expression of SLC25A21 following R1881 stimulation” value (with vs without R1881, p=0.008) is reported as 0.75 fold and the “expression of FOXA1 following R1881 stimulation” value (with vs without R1881, p=0.05) is reported as 1.3 fold. The “expression of MIPOL1 following R1881 stimulation” value (with vs without R1881, p=0.08) was 1.2 fold and the “expression of TTC6 following R1881 stimulation” value (with vs without R1881, p=0.10) was 0.70 fold.
